Reference: patent US20090247589A1, “Monocarboxylates for modifying macrophage function” (The Brigham and Women's Hospital, Inc., priority 2006, published 2009)

Columns and labels:
RAW 264.7 cells [1] = experiment: Proinflammatory cytokine production by RAW 264.7 cells stimulated with IFN-γ plus uric acid; type: cell-based, murine
RAW 264.7 cells [2] = details: MTT assay
Experimental: (§1) The dose of nicotinic acid was 60-80 μmol/kg/day, corresponding to 500-1000 mg of nicotinic acid in a 70 kg human (depending on bioavailability).

cardiac graft = details: continuous infusion by osmotic minipumps for 4 weeks; 60-80 μmol/kg/day; outliers excluded
Experimental: as §1

RAW 264.7 cells [3] = details: LPS-stimulated RAW 264.7 cells; concomitant administration

| SMILES | abrogation of uric acid + IFN-γ stimulated production of proinflammatory cytokines such as TNF-α (RAW 264.7 cells [1]; concomitant administration) | effect on cell proliferation (RAW 264.7 cells [2]) | graft condition (histology) compared to saline-treated controls (cardiac graft) | production of IL-6 (RAW 264.7 cells [3]) | production of TNF-α (RAW 264.7 cells [3]) | production of proinflammatory cytokines such as TNF-α (stimulating effect) (RAW 264.7 cells [1]; uric acid together with other macrophage stimulators such as IFN-γ) |
| --- | --- | --- | --- | --- | --- | --- |
| O=C(O)c1cccnc1 [nicotinic acid] | largely abrogated | nor nicotinic acid have any significant effect | near normal grafts | significantly reduced | significantly reduced |  |
| O=c1[nH]c(=O)c2[nH]c(=O)[nH]c2[nH]1 [uric acid] |  |  |  |  |  | synergistically, further stimulating production |
